Measurements reported in patent publication EP2706123A1, “In vitro method for determining genotoxic and non-genotoxic carcinogenicity of a compound” (Rijksinstituut Voor Volksgezondheid En Milieu, priority 2012, dated 2014).
Values joined by “and” are separate entries in the source; they are usually repeats but may differ in a detail not shown here. Equal entries are not always repeated.

What was measured:
[1] = tested on: 9030619P08Rik; assay: Expression level of marker gene 9030619P08Rik in liver of mice exposed for 7 days (microarray); settings: mouse liver, 7 days exposure; for Average Fold Changes of the expression level of marker gene 9030619P08Rik: average of 3 - 4 independent repeat experiments, negative value = underexpression (negative inverse of Ratio), dose and route per compound in Table 8; for Fold Change of expression of 9030619P08Rik in individual animals: one animal per table line (suffix of Exposure label = animal number), negative value = underexpression
[2] = tested on: Nup62; assay: Expression level of marker gene Nup62 in liver of mice exposed for 7 days (microarray); settings: mouse liver, 7 days exposure; for Average Fold Changes of the expression level of marker gene Nup62: average of 3 - 4 independent repeat experiments, negative value = underexpression (negative inverse of Ratio), dose and route per compound in Table 8; for Fold Change of expression of Nup62 in individual animals: one animal per table line (suffix of Exposure label = animal number), negative value = underexpression
[3] = tested on: Anks4b; assay: Expression level of marker gene Anks4b in liver of mice exposed for 7 days (microarray); settings: mouse liver, 7 days exposure; for Average Fold Changes of the expression level of marker gene Anks4b: average of 3 - 4 independent repeat experiments, negative value = underexpression (negative inverse of Ratio), dose and route per compound in Table 8; for Fold Change of expression of Anks4b in individual animals: one animal per table line (suffix of Exposure label = animal number), negative value = underexpression
[4] = tested on: LOC75771; assay: Expression level of marker gene LOC75771 in liver of mice exposed for 7 days (microarray); settings: mouse liver, 7 days exposure; for Average Fold Changes of the expression level of marker gene LOC75771: average of 3 - 4 independent repeat experiments, negative value = underexpression (negative inverse of Ratio), dose and route per compound in Table 8; for Fold Change of expression of LOC75771 in individual animals: one animal per table line (suffix of Exposure label = animal number), negative value = underexpression
[5] = tested on: Cyp17a1; assay: Expression level of marker gene Cyp17a1 in liver of mice exposed for 7 days (microarray); settings: mouse liver, 7 days exposure; for Average Fold Changes of the expression level of marker gene Cyp17a1: average of 3 - 4 independent repeat experiments, negative value = underexpression (negative inverse of Ratio), dose and route per compound in Table 8; for Fold Change of expression of Cyp17a1 in individual animals: one animal per table line (suffix of Exposure label = animal number), negative value = underexpression
[6] = tested on: Zbtb16; assay: Expression level of marker gene Zbtb16 in liver of mice exposed for 7 days (microarray); settings: mouse liver, 7 days exposure; for Average Fold Changes of the expression level of marker gene Zbtb16: average of 3 - 4 independent repeat experiments, negative value = underexpression (negative inverse of Ratio), dose and route per compound in Table 8; for Fold Change of expression of Zbtb16 in individual animals: one animal per table line (suffix of Exposure label = animal number), negative value = underexpression

Compound	Average Fold Changes of the expression level of marker gene 9030619P08Rik [1]	Fold Change of expression of 9030619P08Rik in individual animals [1]	Average Fold Changes of the expression level of marker gene Nup62 [2]	Fold Change of expression of Nup62 in individual animals [2]	Average Fold Changes of the expression level of marker gene Anks4b [3]	Fold Change of expression of Anks4b in individual animals [3]	Average Fold Changes of the expression level of marker gene LOC75771 [4]	Fold Change of expression of LOC75771 in individual animals [4]	Average Fold Changes of the expression level of marker gene Cyp17a1 [5]	Fold Change of expression of Cyp17a1 in individual animals [5]	Average Fold Changes of the expression level of marker gene Zbtb16 [6]	Fold Change of expression of Zbtb16 in individual animals [6]
CCCCC(CC)COC(=O)c1ccccc1C(=O)OCC(CC)CCCC (stereo not drawn) [NGTXC_DEHP, Di(2-ethylhexyl)phthalate]	3,11	1,421539 and 3,741746 and 4,049144 and 4,353386	1,03	1,166832 and 1,023361 and -1,1264 and 1,077398	-1,13	-1,08 and -1,18919 and 1,270926 and -1,59617	1,12	1,152676 and 1,339443 and 1,013056 and 1,023425	2,49	6,253363 and 1,806164 and 1,292719 and 2,626167	-1,19	-1,41583 and 1,601817 and -2,52071 and 1,114567
c1ccc2c(c1)cc1ccc3cccc4ccc2c1c34 [GTXC_BaP, Benzo(a)pyrene]	3,08	3,463285 and 3,508919 and 1,242329 and 5,940256	-1,40	-1,46302 and -1,51176 and -1,24257 and -1,41015	1,58	2,091694 and 1,512848 and 1,249576 and 1,590135	1,94	2,511058 and 2,153342 and 1,654892 and 1,573528	1,59	1,069143 and -1,57076 and 2,426957 and 3,849942	-2,08	-2,2075 and -2,73557 and -2,65608 and -1,1713
CC/C(=C(/CC)c1ccc(O)cc1)c1ccc(O)cc1 [NGTXC_DES, Diethylstillbestrol]	8,00	3,399244 and 17,02687 and 10,00524 and 7,062258	-1,07	-1,56356 and 1,18178 and -1,04186 and 1,041463	-1,02	1,020605 and 1,193296 and -1,09903 and -1,20697	-1,06	-1,13239 and -1,07708 and 1,027336 and -1,04436	10,74	9,417864 and 18,44632 and 6,256012 and 12,22566	-1,15	-1,72326 and 1,430939 and 1,400903 and -2,03597
CC(C)(c1ccc(O)cc1)c1ccc(O)cc1 [NC_BPA, Bisphenol A]	1,29	-1,23514 and 2,605592 and 1,167664 and 1,121763	-1,04	-1,01361 and -1,00973 and 1,14385 and -1,3266	-1,02	-1,16229 and 1,285365 and -1,14224 and -1,06695	1,14	1,027932 and 1,306211 and -1,1049 and 1,370273	-2,45	-4,75677 and -1,01075 and -3,4994 and -2,12839	-1,23	1,114306 and -1,6599 and 1,05274 and -1,63459
N.N.[Cl][Pt][Cl] [GTXC_CPPD, Cisplatin]	1,70	1,882632 and 3,19679 and -1,23124	-1,39	-1,40437 and -1,37437 and -1,38035	1,62	1,894611 and 1,416897 and 1,570269	1,98	2,205733 and 1,720149 and 2,049812	-2,48	-4,49668 and -2,09626 and -1,61055	-3,46	-4,28606 and -2,61037 and -3,7119
